ChEMBL document CHEMBL1135912, “GBR compounds and mepyramines as cocaine abuse therapeutics: chemometric studies on selectivity using grid independent descriptors (GRIND)” (J Med Chem, 2002)
“And” between values parts separate entries of the source, which are not always exact repeats. Equal values may be shown once.

How the values were obtained:
Assay type in all cases: cell-based
[1] = target: Sodium-dependent dopamine transporter (Homo sapiens) (UniProt Q01959); assay: Inhibition of radioligand [125I]RTI-55 binding to human Dopamine transporter in clonal cells
Sodium-dependent dopamine transporter (Homo sapiens), sequence (Q01959 whole entry): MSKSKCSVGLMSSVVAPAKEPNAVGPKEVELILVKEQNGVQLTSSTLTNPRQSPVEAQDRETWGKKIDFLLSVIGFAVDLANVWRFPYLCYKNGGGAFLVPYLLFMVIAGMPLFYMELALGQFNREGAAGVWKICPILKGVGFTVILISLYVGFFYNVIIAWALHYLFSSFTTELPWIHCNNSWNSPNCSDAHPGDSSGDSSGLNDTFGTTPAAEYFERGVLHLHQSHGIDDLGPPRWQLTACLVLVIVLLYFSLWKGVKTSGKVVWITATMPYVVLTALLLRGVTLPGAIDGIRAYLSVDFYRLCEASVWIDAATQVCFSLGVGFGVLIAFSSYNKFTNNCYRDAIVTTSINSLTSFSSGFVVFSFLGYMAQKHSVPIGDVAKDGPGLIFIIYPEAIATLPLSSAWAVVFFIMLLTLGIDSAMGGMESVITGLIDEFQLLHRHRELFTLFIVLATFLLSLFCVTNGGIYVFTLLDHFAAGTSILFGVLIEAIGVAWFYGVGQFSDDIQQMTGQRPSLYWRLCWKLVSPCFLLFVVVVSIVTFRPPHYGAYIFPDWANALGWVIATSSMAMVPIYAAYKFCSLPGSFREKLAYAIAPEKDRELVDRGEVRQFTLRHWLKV

[2] = target: Sodium-dependent serotonin transporter (Homo sapiens) (UniProt P31645); assay: Inhibition of [125I]RTI-55 binding to human SERT in clonal cells
Sodium-dependent serotonin transporter (Homo sapiens), sequence (P31645 whole entry, looked up): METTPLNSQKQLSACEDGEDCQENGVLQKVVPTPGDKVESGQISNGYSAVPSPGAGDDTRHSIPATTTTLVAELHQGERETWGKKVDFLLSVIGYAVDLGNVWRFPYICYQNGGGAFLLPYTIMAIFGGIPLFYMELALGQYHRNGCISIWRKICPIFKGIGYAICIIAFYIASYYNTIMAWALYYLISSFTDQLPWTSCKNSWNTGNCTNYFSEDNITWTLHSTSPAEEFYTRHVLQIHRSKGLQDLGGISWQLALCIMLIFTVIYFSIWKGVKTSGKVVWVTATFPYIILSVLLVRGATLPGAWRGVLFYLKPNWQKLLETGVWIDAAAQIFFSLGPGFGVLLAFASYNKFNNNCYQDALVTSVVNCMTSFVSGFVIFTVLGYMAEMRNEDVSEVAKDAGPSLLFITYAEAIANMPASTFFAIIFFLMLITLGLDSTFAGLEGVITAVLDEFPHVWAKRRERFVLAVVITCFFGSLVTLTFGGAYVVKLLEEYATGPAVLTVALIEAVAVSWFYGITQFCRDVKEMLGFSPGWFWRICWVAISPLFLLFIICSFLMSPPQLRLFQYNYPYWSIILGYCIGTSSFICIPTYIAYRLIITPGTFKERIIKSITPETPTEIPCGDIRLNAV

[3] = target: Sodium-dependent dopamine transporter (Homo sapiens) (UniProt Q01959); assay: Inhibition of [3H]dopamine uptake in HEK293 cells expressing recombinant Dopamine transporter

SMILES	pKD [1]	pKD [2]	Log 1/C [3]
Fc1ccc(C(OCCN2CCN(C/C=C/c3ccccc3)CC2)c2ccccc2)cc1 (stereo not drawn)	7.48	6.67	7.1
c1ccc(CCCN2CCN(CCN(Cc3ccccc3)c3ccccc3)CC2)cc1	6.66	5.92	5.96
Fc1ccc(/C=C/CN2CCN(CCOC(c3ccccc3)c3ccccc3)CC2)cc1	7.8	5.88	7.26
COc1ccc(OC)c(/C=C/CN2CCN(CCOC(c3ccc(F)cc3)c3ccc(F)cc3)CC2)c1	8.42	6.74	6.43
Cc1ccc(/C=C/CN2CCN(CCOC(c3ccc(F)cc3)c3ccc(F)cc3)CC2)cc1	7.32	6.18	6.43
Fc1ccc(C(OCCN2CCN(C/C=C/Cc3ccccc3)CC2)c2ccc(F)cc2)cc1	8.29	7.14	6.86
Fc1ccc(C(OCCN2CCN(C/C=C/c3ccccc3)CC2)c2ccc(F)cc2)cc1 (stereo in doubt; 26)	6.39	6.02	6.97
Fc1ccc(/C=C/CN2CCN(CCOC(c3ccccc3)c3ccc(F)cc3)CC2)cc1 (stereo not drawn)	7.64	6.7	7.22
C(=C\c1ccccc1)/CN1CCN(CCN(Cc2ccccc2)c2ccccc2)CC1	6.35	6.22	6.74
Brc1ccc(CN(CCN2CCN(CCCc3ccccc3)CC2)c2ccc(Br)cc2)cc1	6.01	5.79	–
Fc1ccc(C(OCCN2CCN(C/C=C/c3ccccc3)CC2)c2ccc(F)cc2)cc1 (stereo in doubt; 24)	7.76	7.79	8.38
COc1ccc(N(CCN2CCN(C/C=C/c3ccccc3)CC2)Cc2ccccc2)cc1	–	6.55	–
Fc1ccc(C(OCCN2CCN(Cc3ccccc3)CC2)c2ccc(F)cc2)cc1	7.01	6.74	6.12
Fc1ccc(C(OCCN2CCN(C/C=C/c3ccccc3)CC2)c2ccc(Cl)cc2)cc1 (stereo not drawn)	8.41	6.72	6.7
O=C(/C=C/c1c(Cl)cccc1Cl)N1CCN(CCOC(c2ccc(F)cc2)c2ccc(F)cc2)CC1	5.82	6.68	–
COc1ccc(/C=C/CN2CCN(CCOC(c3ccc(F)cc3)c3ccc(F)cc3)CC2)cc1	7.19	6.43	6.47
O=C(CCCN1CCN(CCCc2ccccc2)CC1)N(Cc1ccccc1)c1ccccn1	6.25	5.88	6.61
Fc1ccc(CN(CCN2CCN(CCCc3ccccc3)CC2)c2ccc(F)cc2)cc1	7.28	6.57	–
c1ccc(CCCN2CCN(CCCN(Cc3ccccc3)c3ccccc3)CC2)cc1	–	–	6.07 and 5.83
Fc1ccc(CCCN2CCN(CCOC(c3ccc(F)cc3)c3ccc(F)cc3)CC2)cc1	8.25	6.44	6.42
Fc1ccc(C(OCCN2CCN(CCCc3ccc(Cl)cc3)CC2)c2ccc(F)cc2)cc1	8.09	6.81	7.3
Fc1ccc(C(OCCN2CCN(C/C=C/c3ccc(Cl)cc3)CC2)c2ccc(F)cc2)cc1	7.65	6.09	6.66
COc1ccc(/C=C/C(=O)N2CCN(CCOC(c3ccc(F)cc3)c3ccc(F)cc3)CC2)cc1	6.31	6.85	5.87
Fc1ccc(CCCN2CCN(CCOC(c3ccccc3)c3ccccc3)CC2)cc1	7.4	5.74	6.41
c1ccc(CCCN2CCN(CCCCN(Cc3ccccc3)c3ccccc3)CC2)cc1	7.86	6.88	5.76
COc1ccc(C(OCCN2CCN(C/C=C/c3ccccc3)CC2)c2ccccc2)cc1 (stereo not drawn)	–	6.16	–
COc1ccc(N(CCN2CCN(CCCc3ccccc3)CC2)Cc2ccccc2)cc1	6.04	6.59	6.67

SMILES	pKD [1]	pKD [2]	Log 1/C [3]
Fc1ccc(CCCN2CCN(CCOC(c3ccccc3)c3ccc(F)cc3)CC2)cc1 (stereo not drawn)	7.51	6.33	7.49
Fc1ccc(C(OCCN2CCN(C/C=C/c3ccccc3)CC2)c2ccc(Cl)cc2Cl)cc1 (stereo not drawn)	7.18	6.28	5.86
COc1cccc(C(OCCN2CCN(C/C=C/c3ccccc3)CC2)c2cccc(Br)c2)c1 (stereo not drawn)	6.88	6.13	6.05
O=C(CCCCN1CCN(CCCc2ccccc2)CC1)N(Cc1ccccc1)c1ccccc1	7.24	6.69	6.92
c1ccc(CCCN2CCN(CCN(Cc3ccccc3)c3ccccn3)CC2)cc1	7.04	6.28	6.91
Fc1ccc(CN(CCCN2CCN(CCCc3ccccc3)CC2)c2ccc(F)cc2)cc1	7.86	6.48	6.82
COc1ccc(OC)c(/C=C/C(=O)N2CCN(CCOC(c3ccc(F)cc3)c3ccc(F)cc3)CC2)c1	6.25	6.69	–
Fc1ccc(/C=C/CN2CCN(CCOC(c3ccc(F)cc3)c3ccc(F)cc3)CC2)cc1	8.41	6.64	6.96
COc1ccc(CN(CCN2CCN(CCCc3ccccc3)CC2)c2ccccn2)cc1	6.66	6.79	6.57
O=C(CCCN1CCN(CCCc2ccccc2)CC1)N(Cc1ccccc1)c1ccccc1	7.56	6.28	7.12
Cc1ccc(CN(CCN2CCN(CCCc3ccccc3)CC2)c2ccccc2)cc1	6.37	6.09	5.49
Fc1ccc(C(OCCN2CCN(CCCc3ccccc3)CC2)c2ccccc2)cc1 (stereo not drawn)	7.69	6.21	7.8
Cc1ccc(/C=C/C(=O)N2CCN(CCOC(c3ccc(F)cc3)c3ccc(F)cc3)CC2)cc1	6.1	6.71	5.21
Fc1ccc(CN(CCCN2CCN(CCCc3ccccc3)CC2)c2ccccn2)cc1	7.95	6.55	6.91
C(=C\c1ccccc1)/CN1CCN(CCN(Cc2ccccc2)c2ccccn2)CC1	6	6.17	6.1
Cc1ccc(C(OCCN2CCN(C/C=C/c3ccccc3)CC2)c2ccccc2)cc1 (stereo not drawn)	6.95	5.95	6.78
Fc1ccc(C(OCCN2CCN(C/C=C/c3ccccc3)CC2)c2ccc(F)cc2)cc1 (stereo in doubt; 15)	8.11	6.44	7.08
O=C(/C=C/c1ccccc1Cl)N1CCN(CCOC(c2ccc(F)cc2)c2ccc(F)cc2)CC1	6.14	6.77	5.24
O=C(CN1CCN(CCCc2ccccc2)CC1)N(Cc1ccccc1)c1ccccc1	5.97	5.54	6.28
CN(CCc1ccccc1)CCN1CCN(CCCc2ccccc2)CC1	6.26	5.58	6.85
COc1ccc(CN(CCCN2CCN(CCCc3ccccc3)CC2)c2ccccn2)cc1	7.8	7.23	7.08
Fc1ccc(CN(CCN2CCN(CCCc3ccccc3)CC2)c2ccccn2)cc1	7.19	6.64	6.24
O=C(/C=C/c1ccc(Cl)cc1)N1CCN(CCOC(c2ccc(F)cc2)c2ccc(F)cc2)CC1	6.37	7.14	5.44
Clc1ccc(C(OCCN2CCN(C/C=C/c3ccccc3)CC2)c2ccc(Cl)cc2)cc1	7.42	6.48	6.62
COc1ccc(CN(CCN2CCN(C/C=C/c3ccccc3)CC2)c2ccccn2)cc1	5.66	6.64	–
c1ccc(CCCN2CCN(CCCCCN(Cc3ccccc3)c3ccccc3)CC2)cc1	7.5	6.63	5.83
